Assays:
[1] = tested on: mixed culture of nerve cells-glial cells; assay: Protecting effect on NMDA-induced nerve cell death (LDH release); format: cell-based, ICR mouse; conditions: 100 μM NMDA, LDH release after 24 hours
Outline: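 Embryonic day-14 ICR mouse cortical neurons seeded on cortical glia, Ara-C-treated, then exposed at day 12–15 for 20 min to 100 μM NMDA with compound at 1 or 2 μg/mL. LDH released 24 h later measured colorimetrically as a cell-death index.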

[2] = tested on: thoracic aorta of rats; assay: Relaxing effect on thoracic aorta contracted by phenylephrine (organ bath); design: species or system rats of SD species; conditions: for Relaxation percentage (Mean ± standard deviation): n = 3
Outline: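 Thoracic aortic rings (2 mm) from ether-anesthetized male SD rats (250-300 g) were mounted in Krebs buffer gassed with 95% O2/5% CO2 and equilibrated at 1.0 g basal tension for 90 min. After stable contraction with phenylephrine (0.5 μM), compounds were added and relaxation recorded.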

In the case of CC(=O)N(CCCCNCCCn1c(=O)[nH]c2ccccc2c1=O)CCCn1c(=O)[nH]c2ccccc2c1=O [Compound 3, N-[3-(2,4-dioxo-1,4-dihydro-2H-quinazolin-3-yl)propyl]-N-{4-[3-(2,4-dioxo-1,4-dihydro-2H-quinazolin-3-yl)propylamino]butyl}acetamide], the “Inhibitory effect of cell death by NMDA-induced excitable neurotoxicity” value ([1]; 1 μg/ml compound) is reported as 45.5%, the “Inhibitory effect of cell death by NMDA-induced excitable neurotoxicity” value ([1]; 2 μg/ml compound) is reported as 54.4% and the “Relaxation percentage (Mean ± standard deviation)” value ([2]; 50 μg/mL, phenylephrine 0.5 μM) is reported as 16.2 ± 4.4%. The “Relaxation percentage (Mean ± standard deviation)” value ([2]; 100 μg/mL, phenylephrine 0.5 μM) was 44.2 ± 8.5%, the “Relaxation percentage (Mean ± standard deviation)” value ([2]; 200 μg/mL, phenylephrine 0.5 μM) was 65.6 ± 7.1% and the “Relaxation of thoracic aorta contracted by phenylephrine, dose dependence” value ([2]; 50, 100 and 200 μg/mL) was “dose-dependently relaxed the thoracic aorta of rats contracted by phenylephrine”. It also gave an inhibition at 67 µg/mL ([2]; Rattus norvegicus, 67 μg/mL, phenylephrine 0.5 μM, mean n = 3, read-out: Relaxation percentage) of 27.4%.

Reference: US8404696B2, “Quinazoline-2,4-dione derivative, and medical compositions for the prophylaxis and treatment of cranial nerve disease containing the same” (Shin Poong Pharmaceutical Co., Ltd., priority 2008, dated 2013)
